Laboratory results taken from ChEMBL document CHEMBL6177991, “Discovery of P11-2: A Potent First-in-Class MNK1-Targeting PROTAC Degrader for the Treatment of Cancer” (J Med Chem, 2025).
Activity calls are given as the source filed them. The rule behind the calls is not given here.

What was measured:
[1] = test system: MDA-MB-231; assay: Anti-proliferative activity against human MDA-MB-231 cells measured after 96 hrs by CCK8 assay; conditions: MDA-MB-231, 96 h
[2] = test system: MM1.S; assay: Anti-proliferative activity against human MM1.S cells measured after 120 hrs by CCK8 assay
[3] = test system: MV4-11; assay: Effect on MNK2 expression level in human MV4-11 cells at 300 nM incubated for 24 hrs by DIA-based quantitative proteomics analysis; format: functional, cell-based
[4] = test system: MV4-11; assay: Downregulation of SBNO2 expression level in human MV4-11 cells at 300 nM incubated for 24 hrs by DIA-based quantitative proteomics analysis; format: functional, cell-based
[5] = test system: MV4-11; assay: Downregulation of C9orf40 expression level in human MV4-11 cells at 300 nM incubated for 24 hrs by DIA-based quantitative proteomics analysis; format: functional, cell-based
[6] = test system: MV4-11; assay: Effect on IKZF3 expression in human MV4-11 cells at 10 to 1000 nM incubated for 24 hrs by immunoblot analysis; format: functional, cell-based; conditions: dose 10-1000 nM
[7] = target: Protein cereblon/MAP kinase-interacting serine/threonine-protein kinase 2 (Homo sapiens, UniProt Q96SW2+Q9HBH9); assay: PROTAC activity at CRBN/MNK2 in human MV4-11 cells assessed as inhibition of phosphorylated eIF4E level incubated for 24 hrs by immunoblot analysis; format: cell-based
Chain of Protein cereblon/MAP kinase-interacting serine/threonine-protein kinase 2 (Q9HBH9 whole entry): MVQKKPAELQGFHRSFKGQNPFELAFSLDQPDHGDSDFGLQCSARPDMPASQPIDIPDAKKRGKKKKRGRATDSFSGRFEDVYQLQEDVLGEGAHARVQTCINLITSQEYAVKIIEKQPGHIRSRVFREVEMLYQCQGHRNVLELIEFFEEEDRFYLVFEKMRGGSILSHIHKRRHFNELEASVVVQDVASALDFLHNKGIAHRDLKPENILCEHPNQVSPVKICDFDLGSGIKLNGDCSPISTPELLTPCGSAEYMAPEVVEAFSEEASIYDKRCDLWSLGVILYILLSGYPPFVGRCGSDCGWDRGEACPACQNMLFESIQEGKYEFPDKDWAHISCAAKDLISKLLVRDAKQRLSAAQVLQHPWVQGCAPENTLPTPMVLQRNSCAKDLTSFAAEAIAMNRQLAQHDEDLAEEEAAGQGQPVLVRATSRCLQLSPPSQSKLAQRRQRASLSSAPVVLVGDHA
Chain of Protein cereblon/MAP kinase-interacting serine/threonine-protein kinase 2 (Q96SW2 whole entry): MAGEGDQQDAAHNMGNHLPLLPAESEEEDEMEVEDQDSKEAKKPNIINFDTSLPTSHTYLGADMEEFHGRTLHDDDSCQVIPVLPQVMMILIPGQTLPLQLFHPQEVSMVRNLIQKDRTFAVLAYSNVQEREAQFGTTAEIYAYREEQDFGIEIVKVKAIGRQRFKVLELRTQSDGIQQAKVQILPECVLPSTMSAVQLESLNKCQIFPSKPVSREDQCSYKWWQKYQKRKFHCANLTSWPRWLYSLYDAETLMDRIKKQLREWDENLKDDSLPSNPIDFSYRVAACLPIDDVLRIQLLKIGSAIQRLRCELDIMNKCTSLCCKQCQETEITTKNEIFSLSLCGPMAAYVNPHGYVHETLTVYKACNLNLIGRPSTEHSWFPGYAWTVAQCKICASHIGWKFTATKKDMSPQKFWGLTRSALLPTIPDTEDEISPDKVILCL

[8] = test system: MV4-11; assay: Upregulation of PI3K-Akt pathway related protein expression in human MV4-11 cells by GO analysis; format: functional, cell-based
[9] = test system: MV4-11; assay: Upregulation of ubiquitin-mediated proteolysis pathway related protein expression in human MV4-11 cells by GO analysis; format: functional, cell-based
[10] = test system: MV4-11; assay: Upregulation of RNA transport pathways related protein expression in human MV4-11 cells by GO analysis; format: functional, cell-based
[11] = test system: MV4-11; assay: Upregulation of PI3K-Akt pathway related protein expression in human MV4-11 cells by KEGG analysis; format: functional, cell-based
[12] = test system: MV4-11; assay: Upregulation of mTOR pathway related protein expression in human MV4-11 cells by KEGG analysis; format: functional, cell-based
[13] = test system: MV4-11; assay: Upregulation of cell cycle signaling pathways related protein expression in human MV4-11 cells by KEGG analysis; format: functional, cell-based
[14] = test system: MV4-11; assay: Induction of apoptosis in human MV4-11 cells assessed as late apoptotic cells at 30 nM incubated for 24 hrs by Annexin V-FITC/PI dual staining based flow cytometric analysis (reference value: 1.48 %); format: functional
[15] = test system: MV4-11; assay: Induction of apoptosis in human MV4-11 cells assessed as necrotic cells at 30 nM incubated for 24 hrs by Annexin V-FITC/PI dual staining based flow cytometric analysis (reference value: 0.16 %); format: functional
[16] = test system: MV4-11; assay: Induction of apoptosis in human MV4-11 cells assessed as viable cells at 100 nM incubated for 24 hrs by Annexin V-FITC/PI dual staining based flow cytometric analysis (reference value: 94.9 %); format: functional; conditions: read-out: Activity
[17] = test system: MV4-11; assay: Induction of apoptosis in human MV4-11 cells assessed as early apoptotic cells at 100 nM incubated for 24 hrs by Annexin V-FITC/PI dual staining based flow cytometric analysis (reference value: 3.42 %); format: functional
[18] = test system: MV4-11; assay: Induction of apoptosis in human MV4-11 cells assessed as late apoptotic cells at 100 nM incubated for 24 hrs by Annexin V-FITC/PI dual staining based flow cytometric analysis (reference value: 1.48 %); format: functional
[19] = test system: MV4-11; assay: Induction of apoptosis in human MV4-11 cells assessed as viable cells at 300 nM incubated for 24 hrs by Annexin V-FITC/PI dual staining based flow cytometric analysis (reference value: 94.9 %); format: functional; conditions: read-out: Activity
[20] = test system: MV4-11; assay: Induction of apoptosis in human MV4-11 cells assessed as early apoptotic cells at 300 nM incubated for 24 hrs by Annexin V-FITC/PI dual staining based flow cytometric analysis (reference value: 3.42 %); format: functional
[21] = test system: MV4-11; assay: Induction of cell cycle arrest in human MV4-11 cells assessed as decrease in accumulation of cells at S phase incubated for 24 hrs by PI staining based flow cytometric analysis; format: functional; conditions: dose 30-300 µM
[22] = Cmax in male Sprague-Dawley rat at 20 mg/kg, po measured up to 24 hrs by LC-MS analysis; format: ADME, organism-based; conditions: in vivo
[23] = Tmax in male Sprague-Dawley rat at 5 mg/kg, ip measured up to 24 hrs by LC-MS analysis; format: ADME, organism-based; conditions: in vivo
[24] = Half life in male Sprague-Dawley rat at 1 mg/kg, iv measured up to 24 hrs by LC-MS analysis; format: ADME, organism-based; conditions: in vivo
[25] = Half life in male Sprague-Dawley rat at 5 mg/kg, ip measured up to 24 hrs by LC-MS analysis; format: ADME, organism-based; conditions: in vivo
[26] = Clearance in male Sprague-Dawley rat at 5 mg/kg, ip measured up to 24 hrs by LC-MS analysis; format: ADME, organism-based; conditions: in vivo
[27] = test system: MV4-11; assay: Antitumor activity against human MV4-11 cells xenografted in nude female NSG mouse assessed as tumor growth inhibition at 20 mg/kg, ip qd administrated for 16 days by caliper method relative to control; format: functional; conditions: MV4-11, 384 h, time 16 day, read-out: TGI
[28] = Toxicity in nude female NSG mouse xenografted with human MV4-11 cells assessed as change in body weight at 20 mg/kg, ip qd administrated for 16 days; format: organism-based; conditions: in vivo, 384 h, time 16 day
[29] = test system: Mus musculus; assay: In vivo induction of MNK2 degradation in human MV4-11 cells xenografted in nude female NSG mouse at 20 mg/kg, ip qd administrated for 16 days; format: functional, organism-based; conditions: time 16.0 day
[30] = Hepatotoxicity in nude female NSG mouse xenografted with human MV4-11 cells assessed as change in serum TBIL level at 20 mg/kg, ip qd administrated for 16 days; format: toxicity, organism-based; conditions: in vivo, 384 h, time 16 day
[31] = Hepatotoxicity in nude female NSG mouse xenografted with human MV4-11 cells assessed as change in serum ALP level at 20 mg/kg, ip qd administrated for 16 days; format: toxicity, organism-based; conditions: in vivo, 384 h, time 16 day
[32] = Toxicity in male ICR mouse assessed as histopathological change in heart at 100 mg/kg, ip measured after 14 days by hematoxylin and eosin staining based analysis; format: organism-based; conditions: in vivo, 336 h, time 14 day
[33] = Toxicity in male ICR mouse assessed as histopathological change in kidney at 100 mg/kg, ip measured after 14 days by hematoxylin and eosin staining based analysis; format: organism-based; conditions: in vivo, 336 h, time 14 day
[34] = Toxicity in male ICR mouse assessed as change in serum TBIL level at 100 mg/kg, ip measured after 14 days; format: organism-based; conditions: in vivo, 336 h, time 14 day
[35] = Toxicity in male ICR mouse assessed as change in serum ALP level at 100 mg/kg, ip measured after 14 days; format: organism-based; conditions: in vivo, 336 h, time 14 day
[36] = Toxicity in male ICR mouse assessed as change in serum BUN level at 100 mg/kg, ip measured after 14 days; format: organism-based; conditions: in vivo, 336 h, time 14 day
[37] = Toxicity in male ICR mouse assessed as change in serum uric acid level at 100 mg/kg, ip measured after 14 days; format: organism-based; conditions: in vivo, 336 h, time 14 day
[38] = Toxicity in male ICR mouse assessed as change in serum CK-MB level at 100 mg/kg, ip measured after 14 days; format: organism-based; conditions: in vivo, 336 h, time 14 day
[39] = Toxicity in male ICR mouse assessed as change in serum AST level at 100 mg/kg, ip measured after 14 days; format: organism-based; conditions: in vivo, 336 h, time 14 day

Compound: O=C1CCC(N2Cc3c(NC(=O)CCCCCC(=O)N4CCC(C(=O)Nc5ncc(-c6ccccc6)s5)CC4)cccc3C2=O)C(=O)N1 (centres undefined)
- IC50 [1]: 2060 nM
- IC50 [2]: 240 nM
- Activity [3]: No effect
- Activity [4]: Active
- Activity [5]: Active
- Activity [6]: No effect
- IC50 [7]: 22.1 nM
- Activity [8]: Active
- Activity [9]: Active
- Activity [10]: Active
- Activity [11]: Active
- Activity [12]: Active
- Activity [13]: Active
- Activity [14]: 7.49%
- Activity [15]: 0.27%
- viability at 0.1 µM [16]: 71.5%
- Activity [17]: 14.1%
- Activity [18]: 13.7%
- viability at 0.3 µM [19]: 28%
- Activity [20]: 28.6%
- Activity [21]: Dose-dependent-effect
- Cmax [22]: 160 ng/mL
- Tmax [23]: 0.5 h
- half-life [24]: 4.3 h
- half-life [25]: 5.2 h
- CL/F [26]: 8.75 mL/min/kg
- inhibition in vivo at 20 mg/kg [27]: > 90%
- Activity [28]: Non-toxic
- Activity [29]: inactive
- Activity [30]: Non-toxic
- Activity [31]: Non-toxic
- Activity [32]: Non-toxic
- Activity [33]: Non-toxic
- Activity [34]: Non-toxic
- Activity [35]: Non-toxic
- Activity [36]: Non-toxic
- Activity [37]: Non-toxic
- Activity [38]: Non-toxic
- Activity [39]: Non-toxic
